Measured values as given in patent publication US9492471B2, “Methods of treating a disease or disorder associated with Bruton'S Tyrosine Kinase” (Celgene Avilomics Research, Inc., priority 2013, dated 2016).
Read-outs that look alike come from different tables or passages of the source.

Legend:
Assay in all cases: HotSpot kinase profiling
Assay type in all cases: biochemical
BRK = molecular target: T1, BRK (Homo sapiens, UniProt Q13882)
T1 construct: purchased Reaction Biology Corp
In short: (§1)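 Percent inhibition, averaged when run more than once and referenced to a DMSO negative control, came from a radioactive filter-binding readout on P81 paper. Reactions of kinase with freshly made substrate and cofactors ran for 2 h at room temperature.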

CAMK1a = molecular target: T2, CAMK1a (Homo sapiens, UniProt Q14012)
T2 construct: purchased Reaction Biology Corp
T2 sequence (Q14012 whole entry): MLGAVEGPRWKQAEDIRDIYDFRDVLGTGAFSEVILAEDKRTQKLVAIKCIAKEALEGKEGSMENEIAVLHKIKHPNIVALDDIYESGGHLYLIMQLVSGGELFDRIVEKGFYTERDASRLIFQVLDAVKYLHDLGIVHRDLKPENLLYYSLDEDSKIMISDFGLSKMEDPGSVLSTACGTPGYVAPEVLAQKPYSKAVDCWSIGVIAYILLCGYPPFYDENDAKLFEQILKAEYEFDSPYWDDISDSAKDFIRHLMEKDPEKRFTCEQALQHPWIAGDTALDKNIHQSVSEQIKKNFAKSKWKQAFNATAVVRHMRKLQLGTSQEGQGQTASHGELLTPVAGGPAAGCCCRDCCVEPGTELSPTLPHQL
In short: as §1

EPHA1 = molecular target: T3, EPHA1 (Homo sapiens, UniProt P21709)
T3 construct: purchased Reaction Biology Corp
T3 sequence (P21709 26-976): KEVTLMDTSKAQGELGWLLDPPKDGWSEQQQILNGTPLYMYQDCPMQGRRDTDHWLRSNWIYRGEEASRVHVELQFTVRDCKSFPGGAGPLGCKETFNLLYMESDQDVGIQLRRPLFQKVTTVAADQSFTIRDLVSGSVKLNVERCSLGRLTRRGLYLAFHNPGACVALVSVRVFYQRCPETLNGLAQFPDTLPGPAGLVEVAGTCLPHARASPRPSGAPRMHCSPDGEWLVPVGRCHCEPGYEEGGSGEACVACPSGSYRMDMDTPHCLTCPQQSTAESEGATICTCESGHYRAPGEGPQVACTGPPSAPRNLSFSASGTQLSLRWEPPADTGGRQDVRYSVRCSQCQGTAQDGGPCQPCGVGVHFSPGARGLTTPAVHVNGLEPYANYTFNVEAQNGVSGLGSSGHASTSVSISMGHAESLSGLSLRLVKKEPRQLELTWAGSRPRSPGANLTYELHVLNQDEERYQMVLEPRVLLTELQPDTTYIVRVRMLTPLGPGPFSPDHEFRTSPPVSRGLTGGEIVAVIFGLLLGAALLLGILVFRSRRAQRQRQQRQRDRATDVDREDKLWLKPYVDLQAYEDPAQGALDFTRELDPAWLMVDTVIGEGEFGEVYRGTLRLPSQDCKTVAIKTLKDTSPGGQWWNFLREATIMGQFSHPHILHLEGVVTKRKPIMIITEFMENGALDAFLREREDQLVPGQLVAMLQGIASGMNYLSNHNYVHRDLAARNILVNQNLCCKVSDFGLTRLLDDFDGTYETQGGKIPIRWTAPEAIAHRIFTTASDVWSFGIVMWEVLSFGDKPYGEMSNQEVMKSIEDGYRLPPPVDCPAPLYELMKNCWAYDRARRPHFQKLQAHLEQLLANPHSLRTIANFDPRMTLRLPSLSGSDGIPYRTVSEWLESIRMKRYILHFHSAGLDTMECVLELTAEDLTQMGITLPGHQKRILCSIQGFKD
In short: as §1

EPHA2 = molecular target: T4, EPHA2 (Homo sapiens, UniProt P29317)
T4 construct: purchased Reaction Biology Corp
T4 sequence (P29317 24-976): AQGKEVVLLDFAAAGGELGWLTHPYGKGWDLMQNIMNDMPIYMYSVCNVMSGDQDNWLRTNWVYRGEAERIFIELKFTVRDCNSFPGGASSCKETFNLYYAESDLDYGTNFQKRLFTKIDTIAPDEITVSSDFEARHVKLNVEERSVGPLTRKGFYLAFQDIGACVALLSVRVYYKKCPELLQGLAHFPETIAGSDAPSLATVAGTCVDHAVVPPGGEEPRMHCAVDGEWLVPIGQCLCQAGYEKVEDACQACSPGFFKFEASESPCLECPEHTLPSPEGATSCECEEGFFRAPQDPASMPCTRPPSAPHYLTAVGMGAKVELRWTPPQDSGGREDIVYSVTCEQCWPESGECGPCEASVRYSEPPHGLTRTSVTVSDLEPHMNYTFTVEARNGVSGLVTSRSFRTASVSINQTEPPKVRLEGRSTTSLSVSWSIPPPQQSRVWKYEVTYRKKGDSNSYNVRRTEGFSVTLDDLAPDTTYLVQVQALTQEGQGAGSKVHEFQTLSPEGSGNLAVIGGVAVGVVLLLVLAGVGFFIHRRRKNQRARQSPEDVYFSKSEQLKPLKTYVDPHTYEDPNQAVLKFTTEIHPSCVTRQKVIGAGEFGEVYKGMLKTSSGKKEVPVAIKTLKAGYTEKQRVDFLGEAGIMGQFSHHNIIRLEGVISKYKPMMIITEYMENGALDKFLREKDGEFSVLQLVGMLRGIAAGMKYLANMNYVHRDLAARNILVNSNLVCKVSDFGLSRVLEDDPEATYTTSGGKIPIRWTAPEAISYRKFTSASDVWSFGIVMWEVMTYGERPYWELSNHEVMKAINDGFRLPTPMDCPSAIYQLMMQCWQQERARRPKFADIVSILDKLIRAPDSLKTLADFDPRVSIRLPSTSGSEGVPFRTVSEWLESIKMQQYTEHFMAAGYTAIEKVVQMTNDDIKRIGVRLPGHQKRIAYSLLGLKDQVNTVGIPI
In short: as §1

LOK/STK10 = molecular target: T5, LOK/STK10 (Homo sapiens, UniProt O94804)
T5 construct: purchased Reaction Biology Corp
T5 sequence (O94804 whole entry): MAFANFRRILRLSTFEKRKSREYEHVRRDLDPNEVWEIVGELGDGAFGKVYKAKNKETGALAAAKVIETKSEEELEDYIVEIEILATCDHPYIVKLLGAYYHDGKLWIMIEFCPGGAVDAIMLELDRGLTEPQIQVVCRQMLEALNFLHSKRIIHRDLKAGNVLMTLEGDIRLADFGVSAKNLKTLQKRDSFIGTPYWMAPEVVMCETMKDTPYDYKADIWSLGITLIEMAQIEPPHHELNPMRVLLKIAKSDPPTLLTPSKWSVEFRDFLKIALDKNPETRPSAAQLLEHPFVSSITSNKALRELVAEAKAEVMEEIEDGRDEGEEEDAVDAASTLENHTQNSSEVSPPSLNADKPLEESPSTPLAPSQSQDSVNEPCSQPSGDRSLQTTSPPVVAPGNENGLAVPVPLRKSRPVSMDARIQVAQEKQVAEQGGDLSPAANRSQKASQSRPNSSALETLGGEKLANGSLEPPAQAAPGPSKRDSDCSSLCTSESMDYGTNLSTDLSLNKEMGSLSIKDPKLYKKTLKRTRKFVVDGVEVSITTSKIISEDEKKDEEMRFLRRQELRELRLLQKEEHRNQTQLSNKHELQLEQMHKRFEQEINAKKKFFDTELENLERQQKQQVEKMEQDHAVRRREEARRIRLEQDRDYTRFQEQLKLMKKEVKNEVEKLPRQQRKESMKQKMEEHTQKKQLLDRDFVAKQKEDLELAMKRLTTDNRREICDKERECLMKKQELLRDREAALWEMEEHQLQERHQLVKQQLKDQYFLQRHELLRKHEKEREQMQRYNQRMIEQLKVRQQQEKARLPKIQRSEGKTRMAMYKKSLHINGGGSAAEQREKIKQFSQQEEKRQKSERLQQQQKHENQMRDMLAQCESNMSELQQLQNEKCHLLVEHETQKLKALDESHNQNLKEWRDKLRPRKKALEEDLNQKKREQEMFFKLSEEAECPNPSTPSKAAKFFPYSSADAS
In short: as §1

MRCKb/CDC42BPB = molecular target: T6, MRCKb/CDC42BPB (Homo sapiens, UniProt Q9Y5S2)
T6 construct: purchased Reaction Biology Corp
T6 sequence (Q9Y5S2 whole entry): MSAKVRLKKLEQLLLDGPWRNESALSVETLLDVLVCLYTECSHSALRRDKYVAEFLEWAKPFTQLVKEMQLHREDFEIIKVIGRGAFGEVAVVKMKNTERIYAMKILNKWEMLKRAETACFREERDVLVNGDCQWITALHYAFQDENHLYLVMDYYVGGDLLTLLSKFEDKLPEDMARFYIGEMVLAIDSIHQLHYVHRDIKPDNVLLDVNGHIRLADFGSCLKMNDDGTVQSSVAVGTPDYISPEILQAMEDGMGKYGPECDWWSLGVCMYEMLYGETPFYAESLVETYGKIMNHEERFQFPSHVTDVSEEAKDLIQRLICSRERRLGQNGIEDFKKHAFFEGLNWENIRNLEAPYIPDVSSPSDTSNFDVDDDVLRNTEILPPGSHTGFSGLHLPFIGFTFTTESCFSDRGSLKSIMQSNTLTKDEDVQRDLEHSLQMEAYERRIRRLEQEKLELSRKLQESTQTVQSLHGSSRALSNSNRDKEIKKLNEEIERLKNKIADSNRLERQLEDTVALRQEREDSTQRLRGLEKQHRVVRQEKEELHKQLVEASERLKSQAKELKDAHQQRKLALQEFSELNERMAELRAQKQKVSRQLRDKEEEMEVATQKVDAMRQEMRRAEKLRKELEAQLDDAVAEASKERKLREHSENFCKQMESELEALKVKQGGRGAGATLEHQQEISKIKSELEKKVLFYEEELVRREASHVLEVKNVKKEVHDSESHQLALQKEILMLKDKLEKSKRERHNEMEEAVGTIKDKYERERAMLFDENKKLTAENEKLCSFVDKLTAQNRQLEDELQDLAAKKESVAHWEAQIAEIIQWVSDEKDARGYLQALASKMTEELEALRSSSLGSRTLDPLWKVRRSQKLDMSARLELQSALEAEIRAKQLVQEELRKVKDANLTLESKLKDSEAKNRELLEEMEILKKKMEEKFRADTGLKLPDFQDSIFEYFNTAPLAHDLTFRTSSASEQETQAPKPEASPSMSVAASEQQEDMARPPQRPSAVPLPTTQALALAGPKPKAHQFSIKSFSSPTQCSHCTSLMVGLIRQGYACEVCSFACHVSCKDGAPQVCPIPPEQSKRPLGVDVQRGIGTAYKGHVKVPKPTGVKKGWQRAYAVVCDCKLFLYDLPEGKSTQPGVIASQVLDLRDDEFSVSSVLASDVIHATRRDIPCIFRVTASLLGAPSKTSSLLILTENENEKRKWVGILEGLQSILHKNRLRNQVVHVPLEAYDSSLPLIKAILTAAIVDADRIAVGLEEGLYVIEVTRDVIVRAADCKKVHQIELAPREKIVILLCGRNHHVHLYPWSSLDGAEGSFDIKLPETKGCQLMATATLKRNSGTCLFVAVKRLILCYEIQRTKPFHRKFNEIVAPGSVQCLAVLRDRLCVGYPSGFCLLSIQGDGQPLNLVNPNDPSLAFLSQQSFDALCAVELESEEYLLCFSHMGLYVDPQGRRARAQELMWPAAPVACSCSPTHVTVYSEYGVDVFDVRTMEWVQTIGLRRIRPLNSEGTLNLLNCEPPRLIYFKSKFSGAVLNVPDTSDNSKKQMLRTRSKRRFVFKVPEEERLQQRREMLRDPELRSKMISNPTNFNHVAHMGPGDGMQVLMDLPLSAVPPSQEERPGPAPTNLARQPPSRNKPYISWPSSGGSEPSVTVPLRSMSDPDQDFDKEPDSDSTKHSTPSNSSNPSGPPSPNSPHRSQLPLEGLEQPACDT
In short: as §1

P38a/MAPK14 = molecular target: T7, P38a/MAPK14 (Homo sapiens, UniProt Q16539)
T7 construct: purchased Reaction Biology Corp
T7 sequence (Q16539 whole entry): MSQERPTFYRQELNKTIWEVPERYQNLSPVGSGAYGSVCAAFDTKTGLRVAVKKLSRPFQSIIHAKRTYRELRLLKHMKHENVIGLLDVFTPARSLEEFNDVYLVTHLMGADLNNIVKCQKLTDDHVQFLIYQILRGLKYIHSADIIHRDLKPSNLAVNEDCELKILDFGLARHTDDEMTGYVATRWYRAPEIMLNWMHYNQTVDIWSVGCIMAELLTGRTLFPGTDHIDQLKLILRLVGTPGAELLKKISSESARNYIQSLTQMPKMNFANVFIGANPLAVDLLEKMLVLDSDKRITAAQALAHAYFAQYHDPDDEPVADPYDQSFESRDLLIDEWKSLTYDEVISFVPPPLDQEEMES
In short: as §1

PIM3 = molecular target: T8, PIM3 (Homo sapiens, UniProt Q86V86)
T8 construct: purchased Reaction Biology Corp
In short: as §1

VRK2 = molecular target: T9, VRK2 (Homo sapiens, UniProt Q86Y07)
T9 construct: purchased Reaction Biology Corp
In short: as §1

ZAP70 = molecular target: T10, ZAP70 (Homo sapiens, UniProt P43403)
T10 construct: purchased Reaction Biology Corp
T10 sequence (P43403 1-619): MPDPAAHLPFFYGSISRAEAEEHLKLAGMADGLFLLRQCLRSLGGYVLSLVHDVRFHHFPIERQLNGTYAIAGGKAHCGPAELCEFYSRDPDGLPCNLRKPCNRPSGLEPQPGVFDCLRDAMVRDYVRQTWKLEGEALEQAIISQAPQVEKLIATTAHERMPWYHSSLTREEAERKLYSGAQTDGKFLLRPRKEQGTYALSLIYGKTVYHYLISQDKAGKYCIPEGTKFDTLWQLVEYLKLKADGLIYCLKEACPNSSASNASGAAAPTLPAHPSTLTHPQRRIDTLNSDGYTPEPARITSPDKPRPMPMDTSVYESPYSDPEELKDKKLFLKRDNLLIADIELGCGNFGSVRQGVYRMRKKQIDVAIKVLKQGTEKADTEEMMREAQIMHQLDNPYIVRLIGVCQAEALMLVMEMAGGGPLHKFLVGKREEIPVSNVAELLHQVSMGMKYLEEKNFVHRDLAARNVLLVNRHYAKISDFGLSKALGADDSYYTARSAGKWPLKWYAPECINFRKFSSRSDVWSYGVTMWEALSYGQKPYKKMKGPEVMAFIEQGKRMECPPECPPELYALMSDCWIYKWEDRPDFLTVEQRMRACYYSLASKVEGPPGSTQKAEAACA
In short: as §1

[1] = read-out: % Enzyme Activity (relative to DMSO controls) Run 1
[2] = read-out: % Enzyme Activity (relative to DMSO controls) Run 2

T1 sequence (Q13882 whole entry): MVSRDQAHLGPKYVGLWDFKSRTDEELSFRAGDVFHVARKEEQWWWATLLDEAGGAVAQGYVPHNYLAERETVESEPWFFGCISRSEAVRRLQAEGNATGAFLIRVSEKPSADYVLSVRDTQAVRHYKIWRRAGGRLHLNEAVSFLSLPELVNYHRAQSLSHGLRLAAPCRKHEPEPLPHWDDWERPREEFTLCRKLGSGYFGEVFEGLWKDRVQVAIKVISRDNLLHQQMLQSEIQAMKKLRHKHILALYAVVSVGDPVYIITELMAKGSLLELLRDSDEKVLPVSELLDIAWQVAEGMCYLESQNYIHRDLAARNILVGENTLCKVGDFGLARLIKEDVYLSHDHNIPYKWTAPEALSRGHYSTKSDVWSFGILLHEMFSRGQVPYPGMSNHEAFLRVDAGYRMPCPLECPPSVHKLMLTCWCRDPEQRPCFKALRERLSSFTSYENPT

In the case of C=CC(=O)Nc1cccc(Nc2nc(Nc3ccc(OCCOC)c(F)c3)ncc2F)c1 [Compound 2], the inhibition at 3 µM (BRK) is reported as 75%, the remaining activity at 3 µM (BRK; [1]) is reported as 25.1% and the remaining activity at 3 µM (BRK; [2]) is reported as 25%. It also gave an inhibition at 3 µM (CAMK1a) of -10.4%, a remaining activity at 3 µM (CAMK1a; [1]) of 109% and a remaining activity at 3 µM (CAMK1a; [2]) of 112%. For the same compound, the inhibition at 3 µM (EPHA1) was -0.24%, the remaining activity at 3 µM (EPHA1; [1]) was 99.5% and the remaining activity at 3 µM (EPHA1; [2]) was 101%. The inhibition at 3 µM (EPHA2) was 15.8%, the remaining activity at 3 µM (EPHA2; [1]) was 84.2% and the remaining activity at 3 µM (EPHA2; [2]) was 84.1%. The inhibition at 3 µM (LOK/STK10) was 56.9%, the remaining activity at 3 µM (LOK/STK10; [1]) was 43.1% and the remaining activity at 3 µM (LOK/STK10; [2]) was 43%. For the same compound, the inhibition at 3 µM (MRCKb/CDC42BPB) was -6.12%, the remaining activity at 3 µM (MRCKb/CDC42BPB; [1]) was 107% and the remaining activity at 3 µM (MRCKb/CDC42BPB; [2]) was 105%. For the same compound, the inhibition at 3 µM (P38a/MAPK14) was -6.68%, the remaining activity at 3 µM (P38a/MAPK14; [1]) was 106% and the remaining activity at 3 µM (P38a/MAPK14; [2]) was 108%. The inhibition at 3 µM (PIM3) was -1.83%, the remaining activity at 3 µM (PIM3; [1]) was 104% and the remaining activity at 3 µM (PIM3; [2]) was 100%. For the same compound, the inhibition at 3 µM (VRK2) was 5.06%, the remaining activity at 3 µM (VRK2; [1]) was 94% and the remaining activity at 3 µM (VRK2; [2]) was 95.9%. The inhibition at 3 µM (ZAP70) was -9.21%, the remaining activity at 3 µM (ZAP70; [1]) was 110% and the remaining activity at 3 µM (ZAP70; [2]) was 108%.
